Tests used:
[1] = target: Sodium-dependent serotonin transporter (Homo sapiens, UniProt P31645); assay: In Vitro Pharmacology Assay
Protocol: (§1) The monoamine transporters inhibitory activities of selected cycloalkylmethylamines of Formula (I) are reported herein. The compounds were evaluated using well established radioligand binding assays protocols (Galli, A. et al., J. Exp. Biol. 1995, 198, 2197-2212; Giros, B. et al., Trends Pharmcol. Sci. 1993, 14, 43-49; Gu, H. et al., J. Biol. Chem. 1994, 269(10), 7124-7130; Shearman, L. P. et al, Am. J. Physiol., 1998, 275(6 Pt 1), C1621-1629; Wolf, W. A. et al., J. Biol. Chem. 1992, 267(29), 20820-20825). The human recombinant transporter proteins dopamine (DAT), norepinephrine (NET) and serotonin (SERT) were selected for the in vitro assays. The radioligand binding assays were carried out at 11 different test concentrations 0.1 nM to 1 μM.

[2] = target: Sodium-dependent noradrenaline transporter (Homo sapiens, UniProt P23975); assay: In Vitro Pharmacology Assay
Protocol: as §1

Sodium-dependent noradrenaline transporter, sequence (P23975 whole entry): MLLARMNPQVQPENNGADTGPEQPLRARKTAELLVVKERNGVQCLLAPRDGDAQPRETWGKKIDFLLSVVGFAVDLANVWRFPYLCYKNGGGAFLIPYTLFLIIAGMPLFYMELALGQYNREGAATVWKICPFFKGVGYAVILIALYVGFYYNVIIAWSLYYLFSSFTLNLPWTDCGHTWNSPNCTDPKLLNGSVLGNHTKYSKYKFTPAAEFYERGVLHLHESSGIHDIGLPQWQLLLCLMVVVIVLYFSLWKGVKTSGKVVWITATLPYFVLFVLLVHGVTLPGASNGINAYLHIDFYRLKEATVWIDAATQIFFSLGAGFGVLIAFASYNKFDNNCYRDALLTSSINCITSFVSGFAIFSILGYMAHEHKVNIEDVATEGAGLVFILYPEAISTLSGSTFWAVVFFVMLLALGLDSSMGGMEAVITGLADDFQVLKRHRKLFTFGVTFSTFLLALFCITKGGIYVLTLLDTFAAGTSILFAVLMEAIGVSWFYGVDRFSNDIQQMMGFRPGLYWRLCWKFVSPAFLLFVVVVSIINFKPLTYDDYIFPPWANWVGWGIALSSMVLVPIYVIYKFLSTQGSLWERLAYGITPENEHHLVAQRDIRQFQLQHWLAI
Sodium-dependent serotonin transporter, sequence (P31645 whole entry): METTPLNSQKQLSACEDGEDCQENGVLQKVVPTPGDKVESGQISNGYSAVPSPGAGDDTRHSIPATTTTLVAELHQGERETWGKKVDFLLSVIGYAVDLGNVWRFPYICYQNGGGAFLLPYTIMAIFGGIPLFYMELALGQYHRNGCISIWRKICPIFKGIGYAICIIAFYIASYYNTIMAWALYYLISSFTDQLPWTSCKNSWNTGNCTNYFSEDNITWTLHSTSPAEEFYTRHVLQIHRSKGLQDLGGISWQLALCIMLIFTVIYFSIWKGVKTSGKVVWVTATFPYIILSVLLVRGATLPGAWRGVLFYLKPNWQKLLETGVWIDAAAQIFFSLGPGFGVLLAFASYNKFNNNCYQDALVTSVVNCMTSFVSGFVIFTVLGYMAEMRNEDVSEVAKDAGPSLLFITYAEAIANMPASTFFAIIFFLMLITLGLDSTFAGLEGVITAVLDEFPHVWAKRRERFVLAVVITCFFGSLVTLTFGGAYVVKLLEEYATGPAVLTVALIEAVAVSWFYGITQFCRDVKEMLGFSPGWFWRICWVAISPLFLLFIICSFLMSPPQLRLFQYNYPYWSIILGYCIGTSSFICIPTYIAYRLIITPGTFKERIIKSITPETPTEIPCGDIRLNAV

Compound `CCSCCNC(CC(C)C)C1(c2ccc(Cl)c(Cl)c2)CCC1` (configuration not stated) [US10035761, Compound 13f] has a Ki [1] of 224 nM and a Ki [2] of 119 nM.
